In ChEMBL document CHEMBL4879554, “Data for DCP probe GNE-2256” (2021):
pIC50: −log10 of the molar value.

Tests used:
[1] = molecular target: Dual specificity protein kinase CLK2 (Homo sapiens) (UniProt P49760); test: CLK2 Kinase panel; settings: Compound concentration 1.0 uM
[2] = molecular target: Homeodomain-interacting protein kinase 1 (Homo sapiens) (UniProt Q86Z02); test: HIPK1 Kinase panel; settings: Compound concentration 1.0 uM
[3] = molecular target: Casein kinase I isoform epsilon (Homo sapiens) (UniProt P49674); test: CK1_epsilon1 Kinase panel; settings: Compound concentration 1.0 uM
[4] = molecular target: Sodium-dependent noradrenaline transporter (Homo sapiens) (UniProt P23975); settings: Compound concentration 10.0 uM
[5] = molecular target: CDK8/Cyclin C (Homo sapiens) (UniProt P49336+P24863); test: CDK8/cyclinC Kinase panel; assay type: protein-complex assay; settings: Compound concentration 1.0 uM
[6] = molecular target: Dual specificity mitogen-activated protein kinase kinase 3 (Homo sapiens) (UniProt P46734); test: MEK3 Kinase panel; settings: Compound concentration 1.0 uM
[7] = molecular target: Serine/threonine-protein kinase 26 (Homo sapiens) (UniProt Q9P289); test: MST4 Kinase panel; settings: Compound concentration 1.0 uM
[8] = molecular target: Tyrosine-protein kinase Yes (Homo sapiens) (UniProt P07947); test: Yes Kinase panel; settings: Compound concentration 1.0 uM
[9] = molecular target: Mitogen-activated protein kinase kinase kinase 9 (Homo sapiens) (UniProt P80192); test: MLK1 Kinase panel; settings: Compound concentration 1.0 uM
[10] = molecular target: Bone morphogenetic protein receptor type-1A (Homo sapiens) (UniProt P36894); test: BMPR1A Kinase panel; settings: Compound concentration 1.0 uM
[11] = molecular target: Ribosomal protein S6 kinase alpha-3 (Homo sapiens) (UniProt P51812); test: RSK2 Kinase panel; settings: Compound concentration 1.0 uM
[12] = molecular target: Alpha-1D adrenergic receptor (Homo sapiens) (UniProt P25100); settings: Compound concentration 10.0 uM
[13] = tested on: Epidermal growth factor receptor (Homo sapiens), P00533 [L858R,T790M]; test: EGFR(T790M,L8 58R) Kinase panel; settings: Compound concentration 1.0 uM
[14] = molecular target: Cytoplasmic tyrosine-protein kinase BMX (Homo sapiens) (UniProt P51813); test: Bmx Kinase panel; settings: Compound concentration 1.0 uM
[15] = molecular target: Macrophage colony-stimulating factor 1 receptor (Homo sapiens) (UniProt P07333); test: CSF1R Kinase panel; settings: Compound concentration 1.0 uM
Macrophage colony-stimulating factor 1 receptor (Homo sapiens), sequence (P07333 whole entry): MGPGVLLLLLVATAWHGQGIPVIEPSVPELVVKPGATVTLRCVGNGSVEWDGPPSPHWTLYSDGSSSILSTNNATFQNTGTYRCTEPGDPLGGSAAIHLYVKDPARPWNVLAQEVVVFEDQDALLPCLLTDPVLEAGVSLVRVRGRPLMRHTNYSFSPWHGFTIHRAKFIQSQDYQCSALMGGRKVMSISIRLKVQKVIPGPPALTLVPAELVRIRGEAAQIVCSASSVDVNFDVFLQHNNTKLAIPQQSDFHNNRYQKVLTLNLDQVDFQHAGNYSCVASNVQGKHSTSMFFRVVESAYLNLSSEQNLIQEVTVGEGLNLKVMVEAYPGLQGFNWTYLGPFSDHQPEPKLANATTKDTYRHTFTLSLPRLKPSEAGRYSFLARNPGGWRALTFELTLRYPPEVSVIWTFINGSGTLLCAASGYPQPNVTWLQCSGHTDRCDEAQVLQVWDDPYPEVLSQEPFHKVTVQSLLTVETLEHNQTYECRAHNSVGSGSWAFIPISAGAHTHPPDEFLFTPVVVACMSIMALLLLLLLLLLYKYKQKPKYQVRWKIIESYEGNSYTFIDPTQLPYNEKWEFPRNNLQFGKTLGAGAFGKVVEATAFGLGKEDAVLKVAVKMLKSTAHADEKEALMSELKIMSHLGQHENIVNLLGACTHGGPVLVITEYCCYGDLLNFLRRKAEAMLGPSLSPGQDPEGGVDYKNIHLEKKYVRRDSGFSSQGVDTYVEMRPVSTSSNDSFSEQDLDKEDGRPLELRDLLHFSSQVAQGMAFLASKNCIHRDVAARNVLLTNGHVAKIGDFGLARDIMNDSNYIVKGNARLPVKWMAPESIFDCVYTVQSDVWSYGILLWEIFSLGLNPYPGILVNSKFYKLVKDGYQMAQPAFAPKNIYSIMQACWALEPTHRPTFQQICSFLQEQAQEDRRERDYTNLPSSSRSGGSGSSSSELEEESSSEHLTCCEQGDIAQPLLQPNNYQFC

[16] = molecular target: MAP kinase-activated protein kinase 2 (Homo sapiens) (UniProt P49137); test: MAPKAPK2 Kinase panel; settings: Compound concentration 1.0 uM
[17] = molecular target: Histamine H3 receptor (Homo sapiens) (UniProt Q9Y5N1); settings: Compound concentration 10.0 uM
[18] = molecular target: Activin receptor type-2B (Homo sapiens) (UniProt Q13705); test: ACVR2B Kinase panel; settings: Compound concentration 1.0 uM
[19] = molecular target: Serine/threonine-protein kinase PLK3 (Homo sapiens) (UniProt Q9H4B4); test: PLK3 Kinase panel; settings: Compound concentration 1.0 uM
Serine/threonine-protein kinase PLK3 (Homo sapiens), sequence (Q9H4B4 whole entry, looked up): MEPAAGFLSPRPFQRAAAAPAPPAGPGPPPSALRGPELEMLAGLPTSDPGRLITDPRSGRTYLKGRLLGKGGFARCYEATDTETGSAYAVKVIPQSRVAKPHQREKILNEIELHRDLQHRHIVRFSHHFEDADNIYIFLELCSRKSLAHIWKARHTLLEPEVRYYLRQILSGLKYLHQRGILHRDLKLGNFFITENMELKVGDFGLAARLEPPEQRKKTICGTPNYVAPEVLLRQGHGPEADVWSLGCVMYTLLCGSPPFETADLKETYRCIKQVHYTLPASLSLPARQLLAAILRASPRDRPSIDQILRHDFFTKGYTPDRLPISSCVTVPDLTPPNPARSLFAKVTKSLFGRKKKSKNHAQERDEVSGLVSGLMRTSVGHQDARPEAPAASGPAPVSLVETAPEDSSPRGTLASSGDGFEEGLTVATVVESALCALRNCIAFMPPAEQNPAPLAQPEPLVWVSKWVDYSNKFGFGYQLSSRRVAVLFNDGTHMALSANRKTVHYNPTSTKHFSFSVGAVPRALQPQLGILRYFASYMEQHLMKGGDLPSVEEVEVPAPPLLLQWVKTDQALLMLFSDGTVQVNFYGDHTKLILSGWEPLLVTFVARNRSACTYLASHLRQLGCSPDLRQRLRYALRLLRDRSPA

[20] = molecular target: Serine/threonine-protein kinase 33 (Homo sapiens) (UniProt Q9BYT3); test: STK33 Kinase panel; settings: Compound concentration 1.0 uM
[21] = molecular target: High affinity nerve growth factor receptor (Homo sapiens, UniProt P04629); test: NanoBRET assay (NTRK1v2, SGC Frankfurt)
[22] = molecular target: 5-hydroxytryptamine receptor 2B (Homo sapiens, UniProt P41595); settings: Compound concentration 10.0 uM
[23] = molecular target: Serine/threonine-protein kinase 25 (Homo sapiens) (UniProt O00506); test: YSK1 Kinase panel; settings: Compound concentration 1.0 uM
[24] = molecular target: Tyrosine-protein kinase Fgr (Homo sapiens) (UniProt P09769); test: Fgr Kinase panel; settings: Compound concentration 1.0 uM
[25] = molecular target: Protein kinase C theta type (Homo sapiens) (UniProt Q04759); test: PKC_theta Kinase panel; settings: Compound concentration 1.0 uM
[26] = molecular target: Muscarinic acetylcholine receptor M2 (Homo sapiens) (UniProt P08172); settings: Compound concentration 10.0 uM
[27] = tested on: RAF proto-oncogene serine/threonine-protein kinase (Homo sapiens), P04049 [Y340D,Y341D]; test: RAF1(Y340D,Y3\n41D) Kinase panel; settings: Compound concentration 1.0 uM
[28] = molecular target: Serine/threonine-protein kinase Nek6 (Homo sapiens) (UniProt Q9HC98); test: NEK6 Kinase panel; settings: Compound concentration 1.0 uM
[29] = molecular target: CDK9/cyclin T1 (Homo sapiens) (UniProt O60563+P50750); test: CDK9/cyclinT1 Kinase panel; assay type: protein-complex assay; settings: Compound concentration 1.0 uM
[30] = molecular target: Dual specificity mitogen-activated protein kinase kinase 1 (Homo sapiens) (UniProt Q02750); test: MEK1 Kinase panel; settings: Compound concentration 1.0 uM
[31] = molecular target: Calcium/calmodulin-dependent protein kinase kinase 1 (Homo sapiens) (UniProt Q8N5S9); test: CAMKK1 Kinase panel; settings: Compound concentration 1.0 uM
[32] = molecular target: STE20-like serine/threonine-protein kinase (Homo sapiens) (UniProt Q9H2G2); test: SLK Kinase panel; settings: Compound concentration 1.0 uM
[33] = molecular target: Tyrosine-protein kinase JAK3 (Homo sapiens) (UniProt P52333); test: JAK3 Kinase panel; settings: Compound concentration 1.0 uM
[34] = molecular target: Casein kinase I isoform delta (Homo sapiens) (UniProt P48730); test: CK1_delta Kinase panel; settings: Compound concentration 1.0 uM
[35] = molecular target: Mast/stem cell growth factor receptor Kit (Homo sapiens) (UniProt P10721); test: Kit Kinase panel; settings: Compound concentration 1.0 uM
[36] = molecular target: Receptor tyrosine-protein kinase erbB-2 (Homo sapiens) (UniProt P04626); test: ErbB2 Kinase panel; settings: Compound concentration 1.0 uM
[37] = molecular target: Serine/threonine-protein kinase SIK2 (Homo sapiens) (UniProt Q9H0K1); test: SIK2 Kinase panel; settings: Compound concentration 1.0 uM
[38] = molecular target: MAP/microtubule affinity-regulating kinase 3 (Homo sapiens) (UniProt P27448); test: MARK3 Kinase panel; settings: Compound concentration 1.0 uM
[39] = molecular target: Alpha-2C adrenergic receptor (Homo sapiens) (UniProt P18825); settings: Compound concentration 10.0 uM
[40] = molecular target: Tyrosine-protein kinase Lyn (Homo sapiens) (UniProt P07948); test: Lyn Kinase panel; settings: Compound concentration 1.0 uM
[41] = molecular target: Dual specificity protein kinase CLK4 (Homo sapiens) (UniProt Q9HAZ1); test: CLK4 Kinase panel; settings: Compound concentration 1.0 uM
[42] = molecular target: T1, Tyrosine-protein kinase JAK2 (Homo sapiens, UniProt O60674); test: JAK2 Kinase panel
T1 sequence (O60674 whole entry): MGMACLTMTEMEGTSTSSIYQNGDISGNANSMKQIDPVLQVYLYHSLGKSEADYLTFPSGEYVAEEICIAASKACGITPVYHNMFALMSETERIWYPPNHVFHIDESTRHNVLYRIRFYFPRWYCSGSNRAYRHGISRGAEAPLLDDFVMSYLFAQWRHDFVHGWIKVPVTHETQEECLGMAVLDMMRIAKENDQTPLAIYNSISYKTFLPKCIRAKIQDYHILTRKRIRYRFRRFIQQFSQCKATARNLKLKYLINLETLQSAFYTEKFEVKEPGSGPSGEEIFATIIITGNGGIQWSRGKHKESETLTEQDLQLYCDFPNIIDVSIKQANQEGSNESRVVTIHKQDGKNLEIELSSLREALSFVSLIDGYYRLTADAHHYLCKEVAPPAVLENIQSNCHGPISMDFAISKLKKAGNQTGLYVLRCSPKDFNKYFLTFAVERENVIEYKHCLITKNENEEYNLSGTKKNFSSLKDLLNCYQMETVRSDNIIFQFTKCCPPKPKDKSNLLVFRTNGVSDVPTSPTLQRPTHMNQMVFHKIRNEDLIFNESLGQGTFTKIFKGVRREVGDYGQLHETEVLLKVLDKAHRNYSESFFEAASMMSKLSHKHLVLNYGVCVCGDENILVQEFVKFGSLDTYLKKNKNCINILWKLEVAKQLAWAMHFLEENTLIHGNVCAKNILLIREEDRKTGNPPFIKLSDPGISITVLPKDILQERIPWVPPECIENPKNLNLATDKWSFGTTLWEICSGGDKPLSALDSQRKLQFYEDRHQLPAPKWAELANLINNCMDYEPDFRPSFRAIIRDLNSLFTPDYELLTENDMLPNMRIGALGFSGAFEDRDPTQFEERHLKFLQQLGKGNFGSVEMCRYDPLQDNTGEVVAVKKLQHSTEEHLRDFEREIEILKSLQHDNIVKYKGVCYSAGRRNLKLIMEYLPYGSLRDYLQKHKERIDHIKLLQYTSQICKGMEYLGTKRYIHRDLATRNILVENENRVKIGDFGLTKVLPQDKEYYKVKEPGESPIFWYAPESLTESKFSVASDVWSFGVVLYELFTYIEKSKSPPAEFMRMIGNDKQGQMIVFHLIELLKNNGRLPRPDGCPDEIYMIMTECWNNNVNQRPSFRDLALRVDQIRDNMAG

[43] = molecular target: G protein-coupled receptor kinase 3 (Homo sapiens) (UniProt P35626); test: GRK3 Kinase panel; settings: Compound concentration 1.0 uM
[44] = molecular target: Serine/threonine-protein kinase NLK (Homo sapiens) (UniProt Q9UBE8); test: NLK Kinase panel; settings: Compound concentration 1.0 uM
Serine/threonine-protein kinase NLK (Homo sapiens), sequence (Q9UBE8 whole entry): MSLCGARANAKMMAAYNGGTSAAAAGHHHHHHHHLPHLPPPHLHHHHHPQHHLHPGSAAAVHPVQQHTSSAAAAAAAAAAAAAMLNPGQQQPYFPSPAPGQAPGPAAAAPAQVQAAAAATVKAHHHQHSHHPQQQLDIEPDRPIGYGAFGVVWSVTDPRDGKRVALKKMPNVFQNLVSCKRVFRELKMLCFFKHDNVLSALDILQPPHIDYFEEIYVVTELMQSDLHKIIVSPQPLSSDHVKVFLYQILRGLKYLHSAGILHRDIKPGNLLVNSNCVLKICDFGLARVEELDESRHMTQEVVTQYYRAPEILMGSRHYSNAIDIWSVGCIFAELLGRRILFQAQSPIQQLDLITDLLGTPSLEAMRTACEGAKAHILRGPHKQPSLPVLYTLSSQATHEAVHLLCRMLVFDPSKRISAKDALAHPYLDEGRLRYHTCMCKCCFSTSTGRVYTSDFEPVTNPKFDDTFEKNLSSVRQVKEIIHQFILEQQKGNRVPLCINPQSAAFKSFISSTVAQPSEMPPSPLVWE

[45] = molecular target: 5-hydroxytryptamine receptor 5A (Homo sapiens) (UniProt P47898); settings: Compound concentration 10.0 uM
[46] = molecular target: 5-hydroxytryptamine receptor 1D (Homo sapiens) (UniProt P28221); settings: Compound concentration 10.0 uM
[47] = molecular target: 5-hydroxytryptamine receptor 2A (Homo sapiens) (UniProt P28223); settings: Compound concentration 10.0 uM
[48] = molecular target: Alpha-2B adrenergic receptor (Homo sapiens) (UniProt P18089); settings: Compound concentration 10.0 uM
[49] = molecular target: Protein kinase C delta type (Homo sapiens) (UniProt Q05655); test: PKC_delta Kinase panel; settings: Compound concentration 1.0 uM
[50] = molecular target: Mitogen-activated protein kinase kinase kinase kinase 5 (Homo sapiens) (UniProt Q9Y4K4); test: KHS1 Kinase panel; settings: Compound concentration 1.0 uM
[51] = molecular target: Serine/threonine-protein kinase MRCK alpha (Homo sapiens) (UniProt Q5VT25); test: MRCK_alpha Kinase panel; settings: Compound concentration 1.0 uM
Serine/threonine-protein kinase MRCK alpha (Homo sapiens), sequence (Q5VT25 whole entry): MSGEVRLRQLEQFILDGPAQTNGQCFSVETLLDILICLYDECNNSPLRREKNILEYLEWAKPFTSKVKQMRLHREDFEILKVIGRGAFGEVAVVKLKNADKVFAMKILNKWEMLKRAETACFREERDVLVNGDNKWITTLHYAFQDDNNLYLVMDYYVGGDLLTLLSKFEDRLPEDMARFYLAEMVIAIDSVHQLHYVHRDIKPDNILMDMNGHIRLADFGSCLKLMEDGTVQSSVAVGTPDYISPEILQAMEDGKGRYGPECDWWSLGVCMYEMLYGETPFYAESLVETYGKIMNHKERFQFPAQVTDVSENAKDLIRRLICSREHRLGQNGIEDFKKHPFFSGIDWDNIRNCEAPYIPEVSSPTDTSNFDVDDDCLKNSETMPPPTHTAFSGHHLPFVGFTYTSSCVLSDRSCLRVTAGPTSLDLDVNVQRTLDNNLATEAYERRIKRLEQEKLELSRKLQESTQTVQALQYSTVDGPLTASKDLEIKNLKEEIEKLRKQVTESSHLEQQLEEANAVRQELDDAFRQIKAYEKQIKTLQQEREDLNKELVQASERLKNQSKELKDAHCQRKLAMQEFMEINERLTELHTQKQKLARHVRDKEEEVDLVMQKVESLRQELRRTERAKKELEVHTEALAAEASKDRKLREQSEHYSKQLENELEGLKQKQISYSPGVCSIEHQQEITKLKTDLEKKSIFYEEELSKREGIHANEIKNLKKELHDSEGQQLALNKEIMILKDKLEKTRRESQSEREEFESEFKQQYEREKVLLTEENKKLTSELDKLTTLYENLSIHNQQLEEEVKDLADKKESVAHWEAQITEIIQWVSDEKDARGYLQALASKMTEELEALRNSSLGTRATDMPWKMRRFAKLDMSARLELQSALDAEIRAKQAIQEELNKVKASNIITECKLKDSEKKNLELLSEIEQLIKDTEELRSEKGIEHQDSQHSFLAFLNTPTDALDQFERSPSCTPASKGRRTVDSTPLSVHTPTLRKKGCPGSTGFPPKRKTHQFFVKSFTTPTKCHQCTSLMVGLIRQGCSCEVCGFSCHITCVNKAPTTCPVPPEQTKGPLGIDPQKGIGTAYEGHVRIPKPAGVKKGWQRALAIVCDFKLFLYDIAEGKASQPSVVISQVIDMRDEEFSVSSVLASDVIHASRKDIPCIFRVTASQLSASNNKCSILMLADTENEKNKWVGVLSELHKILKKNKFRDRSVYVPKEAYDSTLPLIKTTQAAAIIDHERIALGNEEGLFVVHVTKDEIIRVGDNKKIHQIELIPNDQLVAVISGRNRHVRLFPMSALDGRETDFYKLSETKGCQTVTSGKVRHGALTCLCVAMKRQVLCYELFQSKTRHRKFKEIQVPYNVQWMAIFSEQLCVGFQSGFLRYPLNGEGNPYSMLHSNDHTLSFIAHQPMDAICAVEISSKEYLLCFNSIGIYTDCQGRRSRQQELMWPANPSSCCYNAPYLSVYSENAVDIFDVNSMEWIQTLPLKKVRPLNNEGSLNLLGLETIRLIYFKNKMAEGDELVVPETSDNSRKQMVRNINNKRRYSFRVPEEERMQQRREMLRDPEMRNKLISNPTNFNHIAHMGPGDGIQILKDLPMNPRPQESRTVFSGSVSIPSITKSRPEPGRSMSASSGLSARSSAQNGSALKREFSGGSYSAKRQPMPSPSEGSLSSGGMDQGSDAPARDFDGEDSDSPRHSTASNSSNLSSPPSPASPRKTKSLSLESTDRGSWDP

[52] = molecular target: T1, Tyrosine-protein kinase JAK2; test: NanoBRET assay (JAK2, SGC Frankfurt)
[53] = molecular target: MAP kinase-interacting serine/threonine-protein kinase 1 (Homo sapiens) (UniProt Q9BUB5); test: MKNK1 Kinase panel; settings: Compound concentration 1.0 uM

CC(C)(O)[C@H](F)CN1Cc2cc(NC(=O)c3cnn4cccnc34)c(N3CCOCC3)cc2C1=O
inhibition [1]: 20.3%
inhibition [2]: -0%
inhibition [3]: 5.5%
inhibition [4]: 2.12%
inhibition [5]: 13.5%
inhibition [6]: 12%
inhibition [7]: 2%
inhibition [8]: 41.5%
inhibition [9]: 14%
inhibition [10]: 7%
inhibition [11]: 15%
inhibition [12]: 6.71%
inhibition [13]: 13%
inhibition [14]: 33.3%
inhibition [15]: 25.3%
inhibition [16]: 9.5%
inhibition [17]: -5.14%
inhibition [18]: 12.5%
inhibition [19]: -3%
inhibition [20]: 3.5%
EC50 [21]: 11 µM (not active)
inhibition [22]: 84.1%
inhibition [23]: 5%
inhibition [24]: 53%
inhibition [25]: 1%
inhibition [26]: -9.33%
inhibition [27]: -1.5%
inhibition [28]: 7%
inhibition [29]: 2.5%
inhibition [30]: 20.5%
inhibition [31]: 3.5%
inhibition [32]: 4%
inhibition [33]: 28%
inhibition [34]: 1.5%
inhibition [35]: 3%
inhibition [36]: 1.5%
inhibition [37]: 12%
inhibition [38]: 8.5%
inhibition [39]: -8.65%
inhibition [40]: 55.3%
inhibition [41]: 47.8%
pIC50 [42]: 6.31
inhibition ([42]; Compound concentration 1.0 uM): 80.5%
inhibition [43]: -1%
inhibition [44]: 7%
inhibition [45]: -0.55%
inhibition [46]: 33.2%
inhibition [47]: -7.43%
inhibition [48]: -0.98%
inhibition [49]: 12.5%
inhibition [50]: 36.5%
inhibition [51]: 1.5%
EC50 [52]: > 50 µM (not active)
inhibition [53]: -6%
